- melting point: 142 °C
Compound: COc1cc(C(=O)c2c(C)c(OCCO)c3ccccn23)ccc1[N+](=O)[O-] [Example 80, [1-(2-Hydroxyethoxy)-2-methylindolizin-3-yl](3-methoxy-4-nitrophenyl)methanone]

From patent US7803811B2, “1,2,3-substituted indolizine derivatives, inhibitors of FGFs, method for preparing them and pharmaceutical compositions containing them” (Sanofi-Aventis, priority 2002, dated 2010)
